Laboratory results as given in US20060154243A1 (priority 2003, published 2006).

Columns and labels:
Assay type in all cases: binding, human
[1] = tested on: serum 1a (individual 1, early serum)
[2] = tested on: serum 1b (individual 1, late serum)
serum 2 (individual 2) = tested on: serum 2 (individual 2)
serum 6 (individual 6) = tested on: serum 6 (individual 6)
serum 37 (individual 37) = tested on: serum 37 (individual 37)
serum 62 (individual 62) = tested on: serum 62 (individual 62)
serum London = tested on: serum London
serum SARS-yellow = tested on: serum SARS-yellow
serum SARS-green = tested on: serum SARS-green
[3] = tested on: control serum LUMC (pooled serum of ten healthy hospital workers)
[4] = tested on: control serum Blood-bank (commercial negative donor pooled serum)

Row | Sequence | Binding of serum 1a to linear peptides of Orf14 of SARS-CoV TOR2 [1] | Binding of serum 1b to linear peptides of Orf14 of SARS-CoV TOR2 [2] | Binding of serum 2 to linear peptides of Orf14 of SARS-CoV TOR2 (serum 2 (individual 2)) | Binding of serum 6 to linear peptides of Orf14 of SARS-CoV TOR2 (serum 6 (individual 6)) | Binding of serum 37 to linear peptides of Orf14 of SARS-CoV TOR2 (serum 37 (individual 37)) | Binding of serum 62 to linear peptides of Orf14 of SARS-CoV TOR2 (serum 62 (individual 62)) | Binding of serum London to linear peptides of Orf14 of SARS-CoV TOR2 (serum London) | Binding of serum SARS-yellow to linear peptides of Orf14 of SARS-CoV TOR2 (serum SARS-yellow) | Binding of serum SARS-green to linear peptides of Orf14 of SARS-CoV TOR2 (serum SARS-green) | Control serum LUMC linear peptides [3] | Control serum LUMC looped peptides [3] | Control Serum Blood-Bank Looped peptides [4] | Control serum Blood-bank linear peptides [4]
1 | ILLLEWLAEVVKLPS | 0.5 | 0.4 | 0.5 | 0.5 | 0.6 | 0.4 | 0.5 | 0.3 | 0.1 | 0.5 | 0.6 | 0.7 | 0.6
2 | PLLAPHHVVAVIQEI | 0.5 | 0.4 | 0.4 | 0.4 | 0.6 | 0.4 | 0.5 | 0.4 | 0.2 | 0.5 | 0.6 | 0.6 | 0.4
3 | VAVIQEIQLLAAVGE | 0.5 | 0.4 | 0.3 | 0.4 | 0.5 | 0.3 | 0.3 | 0.2 | 0.3 | 0.3 | 0.6 | 0.6 | 0.3
4 | QEIQLLAAVGEILLL | 0.5 | 0.4 | 0.5 | 0.4 | 0.6 | 0.4 | 0.3 | 0.5 | 0.2 | 0.7 | 0.5 | 0.6 | 0.4
5 | AAVGEILLLEWLAEV | 0.6 | 0.5 | 0.6 | 0.5 | 0.8 | 0.6 | 0.6 | 0.6 | 0.5 | 0.6 | 0.7 | 0.7 | 0.4
6 | LAPHHVVAVIQEIQL | 0.5 | 0.4 | 0.4 | 0.4 | 0.5 | 0.4 | 0.4 | 0.4 | 0.1 | 0.6 | 0.5 | 0.5 | 0.3
7 | AVGEILLLEWLAEVV | 0.6 | 0.5 | 0.5 | 0.5 | 0.7 | 0.6 | 0.6 | 0.5 | 0.3 | 0.8 | 0.8 | 0.8 | 0.5
8 | QLLAAVGEILLLEWL | 0.5 | 0.4 | 0.4 | 0.3 | 0.6 | 0.4 | 0.4 | 0.4 | 0.1 | 0.6 | 0.5 | 0.6 | 0.4
9 | VVAVIQEIQLLAAVG | 0.8 | 0.7 | 0.7 | 1.3 | 0.6 | 0.8 | 1.0 | 0.4 | 0.5 | 1.1 | 0.4 | 0.5 | 1.1
10 | EAEAAVKPLLAPHHV | 0.5 | 0.3 | 0.7 | 0.4 | 0.5 | 0.4 | 0.6 | 0.2 | 0.4 | 0.4 | 0.6 | 0.7 | 0.4
11 | LLAAVGEILLLEWLA | 0.5 | 0.4 | 0.4 | 0.4 | 0.6 | 0.4 | 0.4 | 0.4 | 0.1 | 0.6 | 0.6 | 0.6 | 0.5
